Measurements as given in patent publication US20260285850A1, “SUBSTITUTED OXAZOLIDINONES AND IMIDAZOLINONES AS HERBICIDES” (FMC CORPORATION, priority 2023, published 2026).

Key:
Format in all cases: in vivo
[1] = test system: barnyardgrass (Echinochloa crus-galli); test: Test A preemergence soil spray, visual injury rating 0-100; details: 10 days, 0 = no effect, 100 = complete control
Procedure, shortened: (§1)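 Compound in a non-phytotoxic, surfactant-containing solvent is applied either as a directed soil spray before seedlings emerge or onto emerged plants 2-10 cm tall; pots hold a loam-sand blend. Plants grow 10 days under greenhouse conditions and are rated by eye against untreated controls (0 no effect, 100 complete control).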

[2] = test system: blackgrass (Alopecurus myosuroides); test: as above; details: 10 days, 0 = no effect, 100 = complete control
Procedure, shortened: as §1

corn (Zea mays) [3] = test: as above; details: 10 days, 0 = no effect, 100 = complete control
Procedure, shortened: as §1

[4] = test system: green foxtail (Setaria viridis); test: as above; details: 10 days, 0 = no effect, 100 = complete control
Procedure, shortened: as §1

kochia (Bassia scoparia) [5] = test: as above; details: 10 days, 0 = no effect, 100 = complete control
Procedure, shortened: as §1

[6] = test system: oat, wild (wild oat, Avena fatua); test: as above; details: 10 days, 0 = no effect, 100 = complete control
Procedure, shortened: as §1

[7] = test system: palmer (palmer amaranth, palmer pigweed, Amaranthus palmeri); test: as above; details: 10 days, 0 = no effect, 100 = complete control
Procedure, shortened: as §1

[8] = test system: ragweed (common ragweed, Ambrosia artemisiifolia); test: as above; details: 10 days, 0 = no effect, 100 = complete control
Procedure, shortened: as §1

[9] = test system: ryegrass, Italian (italian ryegrass, Lolium multiflorum); test: as above; details: 10 days, 0 = no effect, 100 = complete control
Procedure, shortened: as §1

soybean (Glycine max) [10] = test: as above; details: 10 days, 0 = no effect, 100 = complete control
Procedure, shortened: as §1

[11] = test system: wheat (Triticum aestivum); test: as above; details: 10 days, 0 = no effect, 100 = complete control
Procedure, shortened: as §1

[12] = test system: barnyardgrass (Echinochloa crus-galli); test: Test A postemergence application, visual injury rating 0-100; details: 10 days
Procedure, shortened: as §1

[13] = test system: blackgrass (Alopecurus myosuroides); test: as above; details: 10 days
Procedure, shortened: as §1

corn (Zea mays) [14] = test: as above; details: 10 days
Procedure, shortened: as §1

[15] = test system: galium (catchweed bedstraw, Galium aparine); test: as above; details: 10 days
Procedure, shortened: as §1

[16] = test system: green foxtail (Setaria viridis); test: as above; details: 10 days
Procedure, shortened: as §1

[17] = test system: horseweed (Erigeron canadensis); test: as above; details: 10 days
Procedure, shortened: as §1

kochia (Bassia scoparia) [18] = test: as above; details: 10 days
Procedure, shortened: as §1

[19] = test system: oat, wild (wild oat, Avena fatua); test: as above; details: 10 days
Procedure, shortened: as §1

[20] = test system: palmer (palmer amaranth, palmer pigweed, Amaranthus palmeri); test: as above; details: 10 days
Procedure, shortened: as §1

[21] = test system: ragweed (common ragweed, Ambrosia artemisiifolia); test: as above; details: 10 days
Procedure, shortened: as §1

[22] = test system: ryegrass, Italian (italian ryegrass, Lolium multiflorum); test: as above; details: 10 days
Procedure, shortened: as §1

soybean (Glycine max) [23] = test: as above; details: 10 days
Procedure, shortened: as §1

[24] = test system: wheat (Triticum aestivum); test: as above; details: 10 days
Procedure, shortened: as §1

[25] = test system: barnyardgrass (Echinochloa crusgalli); test: Test B flooded paddy test, visual plant response rating 0-100; details: 250 g ai/ha, Flood, applied to paddy water, evaluated after 13 days
Procedure, shortened: (§2)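 Plants were grown to the 2-leaf stage, then pots were flooded to 3 cm above the soil and test compounds were applied directly into the paddy water. Water depth was held there throughout; after 13 days in a greenhouse, injury was scored visually against untreated controls.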

[26] = test system: ducksalad (Heteranthera limosa); test: as above; details: 250 g ai/ha, Flood, applied to paddy water, evaluated after 13 days
Procedure, shortened: as §2

rice (Oryza sativa) = test: as above; details: 250 g ai/ha, Flood, applied to paddy water, evaluated after 13 days
Procedure, shortened: as §2

[27] = test system: sedge, umbrella (small-flower umbrella sedge, Cyperus difformis); test: as above; details: 250 g ai/ha, Flood, applied to paddy water, evaluated after 13 days
Procedure, shortened: as §2

[28] = 31 g ai/ha, postemergence, 0 = no effect, 100 = complete control
[29] = Postemergence, 125 g ai/ha, 0 is no effect, 100 is complete control

## CC(C)OC(=O)C1C=CC(NC(=O)C2(C)CN(c3cc(F)cc(Cl)c3)C(=O)O2)C1 (stereo not shown) [Compound 4]
[1]; 31 g ai/ha
  Barnyardgrass plant response rating (0-100): 50
[1]; 125 g ai/ha
  Barnyardgrass plant response rating (0 to 100 scale): 100
[2]; 31 g ai/ha
  Blackgrass plant response rating (0-100): 0
[2]; 125 g ai/ha
  Blackgrass plant response rating (0 to 100 scale): 60
Corn (Zea mays) [3]; 31 g ai/ha
  Corn plant response rating (0-100): 40
Corn (Zea mays) [3]; 125 g ai/ha
  Corn plant response rating (0 to 100 scale): 70
[4]; 31 g ai/ha
  Foxtail, Green plant response rating (0-100): 0
[4]; 125 g ai/ha
  Foxtail, Green plant response rating (0 to 100 scale): 100
Kochia (Bassia scoparia) [5]; 31 g ai/ha
  Kochia plant response rating (0-100): 40
Kochia (Bassia scoparia) [5]; 125 g ai/ha
  Kochia plant response rating (0 to 100 scale): 90
[6]; 31 g ai/ha
  Oat, Wild plant response rating (0-100): 50
[6]; 125 g ai/ha
  Oat, Wild plant response rating (0 to 100 scale): 80
[7]; 31 g ai/ha
  Amaranth, Palmer plant response rating (0-100): 30
[7]; 125 g ai/ha
  Amaranth, Palmer plant response rating (0 to 100 scale): 100
[8]; 31 g ai/ha
  Ragweed plant response rating (0-100): 0
[8]; 125 g ai/ha
  Ragweed plant response rating (0 to 100 scale): 0
[9]; 31 g ai/ha
  Ryegrass, Italian plant response rating (0-100): 50
[9]; 125 g ai/ha
  Ryegrass, Italian plant response rating (0 to 100 scale): 80
Soybean (Glycine max) [10]; 31 g ai/ha
  Soybean plant response rating (0-100): 0
Soybean (Glycine max) [10]; 125 g ai/ha
  Soybean plant response rating (0 to 100 scale): 70
[11]; 31 g ai/ha
  Wheat plant response rating (0-100): 40
[11]; 125 g ai/ha
  Wheat plant response rating (0 to 100 scale): 90
[12]; [28]
  Barnyardgrass plant response rating (0-100): 100
[12]; [29]
  Barnyardgrass plant response rating (0 to 100 scale): 100
[13]; [28]
  Blackgrass plant response rating (0-100): 80
[13]; [29]
  Blackgrass plant response rating (0 to 100 scale): 90
Corn (Zea mays) [14]; [28]
  Corn plant response rating (0-100): 90
Corn (Zea mays) [14]; [29]
  Corn plant response rating (0 to 100 scale): 100
[15]; [28]
  Galium plant response rating (0-100): 80
[15]; [29]
  Galium plant response rating (0 to 100 scale): 90
[16]; [28]
  Foxtail, Green plant response rating (0-100): 90
[16]; [29]
  Foxtail, Green plant response rating (0 to 100 scale): 90
[17]; [28]
  Horseweed plant response rating (0-100): 0
[17]; [29]
  Horseweed plant response rating (0 to 100 scale): 70
Kochia (Bassia scoparia) [18]; [28]
  Kochia plant response rating (0-100): 70
Kochia (Bassia scoparia) [18]; [29]
  Kochia plant response rating (0 to 100 scale): 80
[19]; [28]
  Oat, Wild plant response rating (0-100): 90
[19]; [29]
  Oat, Wild plant response rating (0 to 100 scale): 90
[20]; [28]
  Amaranth, Palmer plant response rating (0-100): 50
[20]; [29]
  Amaranth, Palmer / Pigweed, Palmer plant response rating (0 to 100 scale): 90
[21]; [28]
  Ragweed plant response rating (0-100): 60
[21]; [29]
  Ragweed plant response rating (0 to 100 scale): 80
[22]; [28]
  Ryegrass, Italian plant response rating (0-100): 60
[22]; [29]
  Ryegrass, Italian plant response rating (0 to 100 scale): 90
Soybean (Glycine max) [23]; [28]
  Soybean plant response rating (0-100): 80
Soybean (Glycine max) [23]; [29]
  Soybean plant response rating (0 to 100 scale): 80
[24]; [28]
  Wheat plant response rating (0-100): 90
[24]; [29]
  Wheat plant response rating (0 to 100 scale): 90
[25]
  Plant response rating, Barnyardgrass (0 to 100 scale, 0 is no effect and 100 is complete control): 90
[26]
  Plant response rating, Ducksalad (0 to 100 scale, 0 is no effect and 100 is complete control): 70
Rice (Oryza sativa)
  Plant response rating, Rice (0 to 100 scale, 0 is no effect and 100 is complete control): 20
[27]
  Plant response rating, Sedge, Umbrella (0 to 100 scale, 0 is no effect and 100 is complete control): 95
